From patent publication US20090081157A1, “Immunostimulatory Combinations for Vaccine Adjuvants” (priority 2006, published 2009)

Legend:
[1] = intravenous infusion, humans with non-small cell lung cancer; cited from earlier work
B16-F10 tumors = assay: Peritumoral immunotherapy of established B16-F10 melanoma tumors; format: in vivo, C57BL/6 mice; conditions: figure legends
Procedure: BALB/c mice were injected with 1×10^6 A 20 tumor cells s.c. and […] mice were injected with 1×10^6 B16-F10 tumor cells s.c. After a palpable tumor appeared (>4 mm), 50 μl PBS or plasmid DNA (50 μg) with or without TLR agonist molecules was injected into and around the tumors every other day×5. Tumors were measured every other day.
[…] mice were injected with 1×10^6 B16-F10 tumor cells s.c. After a palpable tumor appeared (>4 mm), 50 μl PBS or plasmid DNA (50 μg) with or without TLR agonist, in the presence or absence of cationic polymer (JetPEI™ Qbiogene Irvine, Calif.) molecules, was injected into and around the tumors every other day×5. Tumors were measured every other day.
Methods: B16-F10 melanoma cells were cultured in RPMI 1640 with 10% fetal bovine serum. Cells were detached with trypsin-EDTA and washed in phosphate-buffered saline (PBS). Then, 10E5 cells in 100 ul PBS were injected subcutaneously over the abdomen of female C57BL/6 female mice, 6- to 9-weeks old (Jackson Laboratories). […]
ATPγS, a nonhydrolyzable form of ATP was added to various agonists (pSP-D-CD40L+CpG+poly(I:C)+ATPe) and the combination was injected intratumorally in to mice presenting established B16F1 melanomas. […] Tumor size was measured every other day and plotted as the product of two orthogonal diameters (i.e., “tumor area”). […]

Molecule | maximum tolerated dose [1] [ug/kg per minute] | synergy with CD40L against established B16-F10 tumors (B16-F10 tumors)
Nc1ncnc2c1ncn2[C@@H]1O[C@H](COP(=O)(O)OP(=O)(O)OP(=O)(O)O)[C@@H](O)[C@H]1O [ATP, adenosine 5′-triphosphate] | 50 | 
polyriboinosinic-polyribocytidylic acid [Poly I:C] |  | synergizes with CD40L
